Earlier results, collected in patent publication US8420593B1, “Compositions and methods for regulating membrane potential” (priority 2006, dated 2013).
Counter-ions that a name gives are not always drawn. Like-named read-outs stand apart in the source and are kept apart here.

Tests used:
[1] = system: potassium currents in PC12 cells
spinal cord injury [2] = settings: days 25, 26 and 27
spinal cord injury [3] = system: spinal cord injury
[4] = system: chronic spinal cord injury; settings: in vivo

Row | SMILES | activity on potassium currents [1] | activity on sodium channels (sodium channels) | motor function (open field walking analysis) (spinal cord injury [2]; 3, 10 and 20 mg/kg, po, established (25 day post injury) injury, mild intensity) | motor function (open field walking) (spinal cord injury [3]; 3 mg/kg, po, long-standing (35 day post injury) injury, moderate intensity) | improvement in walking ability, multiple dose studies (spinal cord injury [3]; once a day oral dosing at 3, 1 and 0.3 mg/kg, moderately injured rats, compression model) | motor function (open field walking analysis) (spinal cord injury [2]; 0.6 mg/kg, ip, compared with HP184) | side effects associated with central nervous system activation [4]
1 | CCCN(c1ccncc1F)n1cc(C)c2ccccc21 [HP184, N-[N-propyl]-N-[3-fluoro-4-pyridinyl]-1H-3-methylindole-1-amine hydrochloride] | voltage dependent blocker of potassium currents | use- and frequency dependent blocker of sodium channels | significantly improved motor function | significantly improved motor function | confirmed the effectiveness | – | –
2 | Nc1ccncc1 [4-AP, 4-aminopyridine] | – | – | – | – | – | This improvement was equaled by the improvement observed with 4-AP | restlessness, confusion, and infrequently reported findings of generalized tonic-clonic seizure
